One assay addresses T1, CDK6/cyclin D3 (Homo sapiens, UniProt Q00534).
T1 construct: purchased Carna
Put plainly: In vitro biochemical kinase activity assay for CDK6/cyclin D3 (HTRF). Conditions: unmarked data: 100 µM ATP in Step 1. In outline:
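HTRF assay: 0.02 nM CDK6/cyclin D3 incubated with 1 mM (or 100 µM) ATP and 0.3 µM Rb-biotin substrate at 30°C for 60 min in kinase buffer with 5 mM MgCl2 and 1 mM DTT.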
For orientation: Time-resolved FRET reads energy transfer from a long-lived donor to a nearby acceptor.

In the next assay the target is T2, CDK2/cyclin E1 (Homo sapiens, UniProt P24941).
T2 construct: purchased Carna
In words: In vitro biochemical kinase activity assay for CDK2/cyclin E1 (HTRF). The conditions noted are these: 1 µM ATP. The procedure: I. In Vitro Biochemical Kinase Activity Assay for CDK2/Cyclin E1
The inhibitory effects of the compounds of the present invention on CDK2/cyclin E1 kinase activity were determined using a homogeneous time-resolved fluorescence (HTRF) assay. The experimental process was as follows: • 1. The kinase reaction was carried out in a 384-well plate. 15 nM CDK2/cyclin E1 kinase (Carna), 1 µM ATP, and 1 µM biotin-labeled substrate protein ATF2-biotin (Cisbio) were incubated at room temperature for 90 min in a buffer system composed of 10 mM MgCl2, 1 mM MnCl2, 1 mM DTT, and basal kinase buffer (Cisbio). • 2. The detection solution (Cisbio, containing reagents that specifically recognize phosphorylated ATF2 and ATF2-biotin proteins, respectively) was added. The plate was then sealed with a film (to protect from light and volatilization) and incubated at 25°C for 60 min. • 3. The plate was transferred to an Envision plate reader to detect fluorescence resonance energy transfer (FRET) signals. (The 665/615 ratio was calculated by reading the emission at 665 nm and 615 nM, respectively.) • 4. The IC50 values were determined by analyzing the inhibition at varying compound concentrations using Model 205 in the XLfit software.

For a further assay, the target named is T3, CDK4/cyclin D3 (Homo sapiens, UniProt P11802).
T3 construct: purchased Carna
Put plainly: In vitro biochemical kinase activity assay for CDK4/cyclin D3 (HTRF). Conditions: unmarked data: 80 µM ATP in Step 1. The procedure, abridged:
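HTRF kinase reaction: 4.9 nM CDK4/cyclin D3, 1 mM (or 80 µM) ATP and 0.3 µM Rb-biotin substrate, 90 min at 30°C in buffer with 50 mM MgCl2 and 1 mM DTT.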

T1 sequence (Q00534 whole entry): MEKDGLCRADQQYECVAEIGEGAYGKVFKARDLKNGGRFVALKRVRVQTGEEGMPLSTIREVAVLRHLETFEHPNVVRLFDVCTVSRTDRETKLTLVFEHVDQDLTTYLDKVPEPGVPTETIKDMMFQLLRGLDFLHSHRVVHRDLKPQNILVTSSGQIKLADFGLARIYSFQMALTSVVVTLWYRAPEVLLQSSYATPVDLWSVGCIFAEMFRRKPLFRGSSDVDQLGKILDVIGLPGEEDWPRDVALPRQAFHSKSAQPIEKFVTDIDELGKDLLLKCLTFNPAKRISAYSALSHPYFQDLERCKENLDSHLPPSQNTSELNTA
T1 sequence (P30281 whole entry partner): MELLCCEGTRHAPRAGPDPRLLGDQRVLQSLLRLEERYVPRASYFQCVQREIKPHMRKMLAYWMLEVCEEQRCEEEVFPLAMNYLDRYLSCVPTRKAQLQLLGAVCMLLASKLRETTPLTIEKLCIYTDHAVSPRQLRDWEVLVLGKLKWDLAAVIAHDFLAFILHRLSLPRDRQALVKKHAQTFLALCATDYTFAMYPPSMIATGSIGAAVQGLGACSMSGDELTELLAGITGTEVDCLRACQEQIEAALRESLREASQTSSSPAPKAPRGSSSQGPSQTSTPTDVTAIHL
T3 sequence (P11802 whole entry): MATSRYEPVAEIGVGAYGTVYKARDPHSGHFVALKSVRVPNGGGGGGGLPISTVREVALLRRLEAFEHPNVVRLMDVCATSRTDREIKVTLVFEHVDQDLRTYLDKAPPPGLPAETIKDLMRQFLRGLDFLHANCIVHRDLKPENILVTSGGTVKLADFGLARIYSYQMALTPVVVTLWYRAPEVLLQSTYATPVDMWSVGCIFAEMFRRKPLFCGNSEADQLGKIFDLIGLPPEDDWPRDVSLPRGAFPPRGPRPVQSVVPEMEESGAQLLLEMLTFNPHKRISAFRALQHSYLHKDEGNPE
T3 sequence (P30281 whole entry partner): as the sequence (P30281 whole entry partner) above

On to `CC(C)n1c(C#Cc2nc(N[C@@H]3CCOC[C@H]3O)ncc2Cl)cnc1[C@@H](C)O` [Example 31, (3 S,4R)-4-((5-chloro-4-((2-((R)-1-hydroxyethyl)-1-isopropyl-1H-imidazol-5-yl)ethynyl)pyrimidin-2-yl)amino)tetrahydro-2H-pyran-3-ol], for which the IC50 on CDK6/cyclin D3 was 47.1 nM; against CDK2/cyclin E1 it was 590 nM; against CDK4/cyclin D3, 7.85 nM.

On to `CNCc1ncc(C#Cc2nc(N[C@@H]3CCOC[C@H]3O)ncc2Cl)n1C(C)C` [Example 35, (3 S,4R)-4-((5-chloro-4-((1-isopropyl-2-((methylamino)methyl)-1H-imidazol-5-yl)ethynyl)pyrimidin-2-yl)amino)tetrahydro-2H-pyran-3-ol], for which the IC50 was 131 nM on CDK6/cyclin D3, 539 nM at CDK2/cyclin E1 and 19 nM at CDK4/cyclin D3.

For `CC(C)NCc1ncc(C#Cc2nc(N[C@@H]3CCOC[C@H]3O)ncc2Cl)n1C(C)C` [Example 40, (3 S,4R)-4-((5-chloro-4-((1-isopropyl-2-((isopropylamino)methyl)-1H-imidazol-5-yl)ethynyl)pyrimidin-2-yl)amino)tetrahydro-2H-pyran-3-ol], the IC50 was 299 nM against CDK6/cyclin D3, 1970 nM at CDK2/cyclin E1 and 30.8 nM on CDK4/cyclin D3.

With `CCN1CCN(Cc2ccc(Nc3ncc(Cl)c(C#Cc4cnc(C(C)(C)O)n4C(C)C)n3)nc2)CC1` [Example 41, 2-(5-((5-chloro-2-((5-((4-ethylpiperazin-1-yl)methyl)pyridin-2-yl)amino)pyrimidin-4-yl)ethynyl)-1-isopropyl-1H-imidazol-2-yl)propan-2-ol], the IC50 at CDK6/cyclin D3 came out at 11 nM; on CDK2/cyclin E1 it was 1850 nM; against CDK4/cyclin D3 it was 1.83 nM.

On to `CC(=O)c1ncc(C#Cc2nc(N[C@@H]3CCOC[C@H]3O)ncc2Cl)n1C(C)C` [Example 52, 1-(5-((5-chloro-2-(((3 S,4R)-3-hydroxytetrahydro-2H-pyran-4-yl)amino)pyrimidin-4-yl)ethynyl)-1-isopropyl-1H-imidazol-2-yl)ethan-1-one], for which the results for the IC50 at CDK6/cyclin D3, on CDK2/cyclin E1 and against CDK4/cyclin D3 were 24.2 nM, 2930 nM and 6.22 nM, respectively.

Turning to `CC(C)n1c(C#Cc2nc(N[C@@H]3COC[C@H]3O)ncc2Cl)cnc1C(C)(C)O` [Example 53, (3 S,4R)-4-((5-chloro-4-((2-(2-hydroxypropan-2-yl)-1-isopropyl-1H-imidazol-5-yl)ethynyl)pyrimidin-2-yl)amino)tetrahydrofuran-3-ol], the IC50 at CDK6/cyclin D3 turned out to be 192 nM; against CDK2/cyclin E1, 493 nM; on CDK4/cyclin D3 it was 60.9 nM.

Turning to `CC(C)n1c(C#Cc2nc(Nc3ccc(C4CCN(C)CC4)cn3)ncc2Cl)cnc1C(C)(C)O` [Example 55, 2-(5-((5-chloro-2-((5-(1-methylpiperidin-4-yl)pyridin-2-yl)amino)pyrimidin-4-yl)ethynyl)-1-isopropyl-1H-imidazol-2-yl)propan-2-ol], the IC50 came out at 1.9 nM against CDK6/cyclin D3, 2120 nM against CDK2/cyclin E1 and 0.33 nM on CDK4/cyclin D3.

Take `CC(C)c1c(C#Cc2nc(N[C@@H]3CCOC[C@H]3O)ncc2Cl)cnn1C` [Example 56, (3 S,4R)-4-((5-chloro-4-((5-isopropyl-1-methyl-1H-pyrazol-4-yl)ethynyl)pyrimidin-2-yl)amino)tetrahydro-2H-pyran-3-ol]: the IC50 at CDK6/cyclin D3 turned out to be 49 nM; on CDK2/cyclin E1, 1370 nM; on CDK4/cyclin D3 it was 3.07 nM.

Regarding `CC(C)c1c(C#Cc2nc(Nc3ccc(C4CCN(C)CC4)cn3)ncc2Cl)cnn1C` [Example 57, 5-chloro-4-((5-isopropyl-1-methyl-1H-pyrazol-4-yl)ethynyl)-N-(5-(1-methylpiperidin-4-yl)pyridin-2-yl)pyrimidin-2-amine], the values for the IC50 at CDK6/cyclin D3, against CDK2/cyclin E1 and against CDK4/cyclin D3 were 3.7 nM, 2830 nM and 0.68 nM, respectively.

On to `CCN1CC2(C1)CN(c1ccc(Nc3ncc(F)c(C#Cc4cnn(C)c4C(C)C)n3)nc1)C2` [Example 61, N-(5-(6-ethyl-2,6-diazaspiro[3.3]heptan-2-yl)pyridin-2-yl)-5-fluoro-4-((5-isopropyl-1-methyl-1H-pyrazol-4-yl)ethynyl)pyrimidin-2-amine], for which the IC50 was 8.46 nM against CDK6/cyclin D3, 617 nM at CDK2/cyclin E1 and 0.94 nM on CDK4/cyclin D3.

Consider `CCN1CC2(C1)CN(c1ccc(Nc3ncc(Cl)c(C#Cc4cnn(C)c4C(C)C)n3)nc1)C2` [Example 62, 5-chloro-N-(5-(6-ethyl-2,6-diazaspiro[3.3]heptan-2-yl)pyridin-2-yl)-4-((5-isopropyl-1-methyl-1H-pyrazol-4-yl)ethynyl)pyrimidin-2-amine], for which the results for the IC50 on CDK6/cyclin D3, against CDK2/cyclin E1 and at CDK4/cyclin D3 were 4.86 nM, 129 nM and 0.36 nM, respectively.

For the compound `CC(C)n1c(C#Cc2nc(N[C@@H]3CCOC[C@H]3O)ncc2Cl)cnc1CN(C)C` [Example 63, (3 S,4R)-4-((5-chloro-4-((2-((dimethylamino)methyl)-1-isopropyl-1H-imidazol-5-yl)ethynyl)pyrimidin-2-yl)amino)tetrahydro-2H-pyran-3-ol], the values for the IC50 at CDK6/cyclin D3, against CDK2/cyclin E1 and at CDK4/cyclin D3 were 130 nM, 693 nM and 23.8 nM, respectively.

For `CC(C)n1c(C#Cc2cc(N[C@@H]3CCOC[C@H]3O)ncc2Cl)cnc1CN1CCC[C@H](O)C1` [Example 109, (S)-1-((5-((5-chloro-2-(((3 S,4R)-3-hydroxytetrahydro-2H-pyran-4-yl)amino)pyridin-4-yl)ethynyl)-1-isopropyl-1H-imidazol-2-yl)methyl)piperidin-3-ol], the figures for the IC50 on CDK6/cyclin D3, on CDK2/cyclin E1 and on CDK4/cyclin D3 were 223 nM, 3190 nM and 4.5 nM, respectively.

By IC50 is commonly meant the concentration that gives 50% inhibition.

(Values after EP4782445A1, “CDK KINASE INHIBITOR AND USE THEREOF” (Abbisko Therapeutics Co., Ltd., priority 2023, dated 2025).)
